One experiment concerns pain models. As to conditions: five-day period; daily injection or implanted mini-pump; rat; cited from earlier work.
The target of experiment [1] is T1, hA3 receptor (Homo sapiens, UniProt P0DMS8).
T1 sequence (P0DMS8 1-318): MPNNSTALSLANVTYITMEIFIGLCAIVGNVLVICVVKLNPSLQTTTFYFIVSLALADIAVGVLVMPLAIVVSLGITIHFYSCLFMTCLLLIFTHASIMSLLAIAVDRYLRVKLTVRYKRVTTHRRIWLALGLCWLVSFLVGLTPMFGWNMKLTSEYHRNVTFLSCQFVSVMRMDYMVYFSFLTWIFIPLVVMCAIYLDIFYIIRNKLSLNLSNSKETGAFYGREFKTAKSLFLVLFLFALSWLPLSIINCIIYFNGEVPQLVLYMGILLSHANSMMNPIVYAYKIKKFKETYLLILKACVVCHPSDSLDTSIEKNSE
Briefly: Radioligand equilibrium displacement assay with [3H]PSB-11 on CHOhA3 membranes. The format is binding. The conditions noted are these: no GTP; for pKi / Ki: 10 °C, 240 min, [3H]PSB-11, CHO cell membranes; for pKi: ± SEM.

Experiment [2] deals with T1, hA3 receptor. Briefly: Competition association assay with [3H]PSB-11. The conditions noted are these: no GTP; for koff / kon: 10 °C, ± SEM; for RT (residence time): RT = 1/(60*koff); for mean pKD (kinetic): from KD = koff/kon; for Kd: read-out: Kinetic KD, KD = koff/kon. The format is binding.
In experiment [3] the target is T1, hA3 receptor. Briefly: Dual-point competition association assay with [3H]PSB-11. The format is binding. The conditions noted are these: no GTP; t1 20 min, t2 240 min; agonist at IC50; 10 °C.

Where “and” joins values, the source holds several entries; their conditions need not be identical. Equal entries are not always repeated. Where two headings read alike, the source gives them in different places.

Take `CNC(=O)[C@@]12C[C@@H]1[C@@H](n1cnc3c(NCc4cccc(Cl)c4)nc(C#Cc4ccc(F)c(F)c4)nc31)[C@H](O)[C@@H]2O` [MRS5698]: in the experiment on pain models, the “efficacy on prolonged exposure in in vivo pain models” value is listed as “maintained full efficacy”.

For orientation: pKi means the negative decadic logarithm of the Ki, by convention in mol/L. Read a low pKi as a large Ki. What is called Ki is the dissociation constant of the complex between target and ligand, obtained from inhibition or displacement. As a reminder, the Kd is the concentration at which binding is half-saturated. `CNC(=O)C12CC1C(n1cnc3c(NCc4cccc(Cl)c4)nc(C#Cc4ccccc4)nc31)C(O)C2O` (stereo not shown) [MRS5655] yielded a pKi at hA3 receptor [1] of 8.5 ± 0.09. Also, the Ki on hA3 receptor [1] (read-out: mean Ki) was 3.6 nM. On hA3 receptor [2], the koff entry was “(1.8 ± 0.3) × 10^-5 s^-1”, the kon result is listed as “(4.0 ± 0.8) × 10^5 M^-1 s^-1”, the “RT (residence time)” value amounted to 909 ± 165 min and the “mean pKD (kinetic)” value worked out at 10.3. Further, at hA3 receptor [2], the Kd came out at 0.046 ± 0.013 nM.

`CNC(=O)[C@H]1O[C@@H](n2cnc3c(NCc4cccc(I)c4)ncnc32)[C@H](O)[C@@H]1O` [IB-MECA, 1-deoxy-1-[6-[((3-Iodophenyl)methyl)amino]-9H-purin-9-yl]-N-methyl-β-D-ribofuranuronamide, reference compound]: at hA3 receptor [1] (displacement curves), the “Hill Slope” value was -0.94 ± 0.05 ^ns.

`CNC(=O)[C@H]1O[C@@H](n2cnc3c(N)ncnc32)[C@H](O)[C@@H]1O` [MECA, 5′-N-methylcarboxamidoadenosine, reference compound]: the pKi at hA3 receptor [1] was determined as 7.4 ± 0.04. Further, at hA3 receptor [1] (read-out: mean Ki), the Ki is 42 nM. Besides, the “KRI (Kinetic Rate Index)” value at hA3 receptor [3] was 1.24 and 1.24 ± 0.09.

Regarding `CNC(=O)[C@@]12C[C@@H]1[C@@H](n1cnc3c(NC)cc(C#Cc4ccc(Cl)s4)nc31)[C@H](O)[C@@H]2O` [MRS7140], the pKi at hA3 receptor [1] is given as 8.3 ± 0.08. The Ki at hA3 receptor [1] (read-out: mean Ki) is 5.2 nM. On hA3 receptor [2], the koff entry is “(8.5 ± 0.3) × 10^-5 s^-1”, the kon entry is “(3.2 ± 1.2) × 10^5 M^-1 s^-1”, the “RT (residence time)” value came to 196 ± 8 min and the “mean pKD (kinetic)” value came to 9.6. Besides, at hA3 receptor [2], the Kd turned out to be 0.27 ± 0.1 nM.

On hA3 receptor [1], `OC[C@H]1O[C@@H](n2cnc3c(Nc4ccc(I)cc4)ncnc32)[C@H](O)[C@@H]1O` [LUF5506] returned a pKi of 7.6 ± 0.08. Also, the Ki on hA3 receptor [1] (read-out: mean Ki) was 29 nM.

`CNC(=O)C12CC1C(n1cnc3c(N(C)C)nc(C#Cc4ccc(Cl)s4)nc31)C(O)C2O` (stereo not shown) [MRS7158]: the Ki on hA3 receptor [1] (read-out: mean Ki) was 618 nM.

As to `OC[C@H]1O[C@@H](n2cnc3c(Nc4cccc(Cl)c4)ncnc32)[C@H](O)[C@@H]1O` [LUF5501], the pKi on hA3 receptor [1] was found to be 7.5 ± 0.02. In addition, at hA3 receptor [1] (read-out: mean Ki), the Ki is 31 nM. Besides, at hA3 receptor [2], the koff entry is “(1.6 ± 0.2) × 10^-3 s^-1”, the kon entry was “(1.7 ± 0.2) × 10^5 M^-1 s^-1”, the “RT (residence time)” value amounted to 10 ± 1.3 min and the “mean pKD (kinetic)” value is 8.0. Moreover, the Kd on hA3 receptor [2] was 9.2 ± 1.4 nM. For the same compound, the “difference between kinetic pKD and pKi” value at hA3 receptor [2] (pKD higher than pKi) is 0.5 log-unit.

In turn, `OC[C@H]1O[C@@H](n2cnc3c(Nc4ccc(Cl)cc4)ncnc32)[C@H](O)[C@@H]1O` [LUF5500] registered a pKi at hA3 receptor [1] of 7.3 ± 0.03. Moreover, the Ki on hA3 receptor [1] (read-out: mean Ki) is 51 nM. For the same compound, the “KRI (Kinetic Rate Index)” value at hA3 receptor [3] was 0.98 (0.95; 1.01).

For `CNC(=O)C12CC1C(n1cnc3c(NC)nc(C#Cc4ccc(-c5ccccc5)cc4)nc31)C(O)C2O` (stereo not shown) [MRS5667], the pKi at hA3 receptor [1] was 8.3 ± 0.05. On hA3 receptor [1] (read-out: mean Ki), the Ki was 4.6 nM. In addition, on hA3 receptor [2], the koff result is given as “(1.1 ± 0.3) × 10^-5 s^-1”, the kon result is on record as “(1.8 ± 0.3) × 10^5 M^-1 s^-1”, the “RT (residence time)” value stood at 1563 ± 464 min and the “mean pKD (kinetic)” value is listed as 10.2. The Kd at hA3 receptor [2] turned out to be 0.058 ± 0.02 nM.

On hA3 receptor [1] (mean Ki), `CNC(=O)[C@@]12C[C@@H]1[C@@H](n1cnc3c(NCc4cccc(Cl)c4)nc(C#Cc4ccc(-c5ccccc5)cc4)nc31)[C@H](O)[C@@H]2O` [MRS5679] gave a Ki of 82 nM. For the same compound, on hA3 receptor [2], the koff entry is on record as “very slow”.

At hA3 receptor [1], `CCCNc1nc(C#Cc2ccc(Cl)s2)nc2c1ncn2[C@H]1[C@H](O)[C@H](O)[C@]2(C(=O)NC)C[C@H]12` [MRS7154] displayed a pKi of 8.7 ± 0.06. Besides, the Ki at hA3 receptor [1] (read-out: mean Ki) was 2.2 nM. Besides, at hA3 receptor [2], the koff entry is “(6.2 ± 1.2) × 10^-5 s^-1”, the kon result was “(4.0 ± 0.7) × 10^5 M^-1 s^-1”, the “RT (residence time)” value is on record as 270 ± 51 min and the “mean pKD (kinetic)” value worked out at 9.8. The Kd at hA3 receptor [2] was determined as 0.15 ± 0.04 nM.

(Values after PMC5959751 (Biochemical pharmacology, 2018).)
